Reference: PubChem BioAssay (NCI)
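Grown in 96-well plates, cells were treated for 48 hours with each compound at five concentrations. Insufficient inhibition: endpoint recorded as highest concentration tested. TGI marks complete inhibition of growth.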

What was measured:
Assay in all cases: NCI tumour cell line growth inhibition, 48 h
[1] = system: IGROV1 ovarian
[2] = system: HCT-116 colon
[3] = system: SNB-19 CNS
[4] = system: K-562 leukemia
[5] = system: DMS 114 small cell lung
[6] = system: NCI-H226 lung
[7] = system: M19-MEL melanoma
[8] = system: NCI-H23 lung
[9] = system: SK-MEL-5 melanoma
[10] = system: M14 melanoma
[11] = system: HL-60(TB) leukemia
[12] = system: EKVX NSCLC
[13] = system: SNB-75 CNS
[14] = system: SF-539 CNS
[15] = system: SR leukemia
[16] = system: KM20L2 colon
[17] = system: A549 NSCLC
[18] = system: TK-10 renal
[19] = system: ACHN renal
[20] = system: SK-MEL-2 melanoma
[21] = system: SW-620 colon
[22] = system: KM12 colon
[23] = system: UO-31 renal
[24] = system: RPMI-8226 leukemia
[25] = system: SK-MEL-28 melanoma
[26] = system: SF-295 CNS
[27] = system: HT29 colon
[28] = system: MOLT-4 leukemia
[29] = system: LXFL 529 NSCLC
[30] = system: CAKI-1 renal
[31] = system: SF-268 CNS
[32] = system: HOP-92 NSCLC
[33] = system: UACC-257 melanoma
[34] = system: COLO 205 colon
[35] = system: CCRF-CEM leukemia
[36] = system: HOP-62 NSCLC
[37] = system: OVCAR-8 ovarian
[38] = system: NCI-H460 lung
[39] = system: OVCAR-3 ovarian
[40] = system: RXF 393 renal
[41] = system: HCC-2998 colon
[42] = system: UACC-62 melanoma
[43] = system: SN12C renal
[44] = system: MDA-MB-231 breast
[45] = system: SK-OV-3 ovarian
[46] = system: NCI/ADR-RES ovarian
[47] = system: HS 578T breast
[48] = system: MDA-MB-435
[49] = system: 786-0 renal
[50] = system: MDA-N
[51] = system: MCF7 breast
[52] = system: A498 renal
[53] = system: BT-549 breast
[54] = system: OVCAR-5 ovarian
[55] = system: DU-145 prostate
[56] = system: PC-3 prostate
[57] = system: LOX IMVI melanoma
[58] = system: T-47D breast
[59] = system: U251 CNS
[60] = system: HCT-15 colon

CCOC(=O)C1=C(C)N2CCCOC2(C)C(C(=O)OC)C1c1cccc([N+](=O)[O-])c1 (stereo unspecified)
TGI [1]: > 100 µM | TGI [2]: > 100 µM | TGI [3]: > 100 µM | TGI [4]: > 100 µM | TGI [5]: > 100 µM | TGI [6]: > 100 µM | TGI [7]: > 100 µM | TGI [8]: > 100 µM | TGI [9]: > 100 µM | TGI [10]: > 100 µM | TGI [11]: > 100 µM | TGI [12]: > 100 µM | TGI [13]: 75.8 µM | TGI [14]: > 100 µM | TGI [15]: > 100 µM | TGI [16]: > 100 µM | TGI [17]: > 100 µM | TGI [18]: > 100 µM | TGI [19]: > 100 µM | TGI [20]: > 100 µM | TGI [21]: > 100 µM | TGI [22]: > 100 µM | TGI [23]: > 100 µM | TGI [24]: > 100 µM | TGI [25]: > 100 µM | TGI [26]: > 100 µM | TGI [27]: > 100 µM | TGI [28]: > 100 µM | TGI [29]: > 100 µM | TGI [30]: > 100 µM | TGI [31]: > 100 µM | TGI [32]: > 100 µM | TGI [33]: > 100 µM | TGI [34]: > 100 µM | TGI [35]: > 100 µM | TGI [36]: > 100 µM | TGI [37]: > 100 µM | TGI [38]: > 100 µM | TGI [39]: > 100 µM | TGI [40]: > 100 µM | TGI [41]: > 100 µM | TGI [42]: > 100 µM

CC(C)Nc1n[nH]c(=O)n1C(C)C
TGI [43]: > 100 µM | TGI [44]: > 100 µM | TGI [45]: > 100 µM | TGI [1]: > 100 µM | TGI [2]: > 100 µM | TGI [3]: > 100 µM | TGI [4]: > 100 µM | TGI [6]: > 100 µM | TGI [8]: > 100 µM | TGI [9]: > 100 µM | TGI [10]: > 100 µM | TGI [11]: > 100 µM | TGI [12]: > 100 µM | TGI [13]: > 100 µM | TGI [14]: > 100 µM | TGI [46]: > 100 µM | TGI [47]: > 100 µM | TGI [15]: > 100 µM | TGI [48]: > 100 µM | TGI [17]: > 100 µM | TGI [18]: > 100 µM | TGI [49]: > 100 µM | TGI [19]: > 100 µM | TGI [20]: > 100 µM | TGI [21]: > 100 µM | TGI [22]: > 100 µM | TGI [23]: > 100 µM | TGI [24]: > 100 µM | TGI [50]: > 100 µM | TGI [25]: > 100 µM | TGI [26]: > 100 µM | TGI [27]: > 100 µM | TGI [28]: > 100 µM | TGI [51]: > 100 µM | TGI [30]: > 100 µM | TGI [52]: > 100 µM | TGI [53]: > 100 µM | TGI [31]: > 100 µM | TGI [54]: > 100 µM | TGI [55]: > 100 µM | TGI [56]: > 100 µM | TGI [32]: > 100 µM | TGI [33]: > 100 µM | TGI [57]: > 100 µM | TGI [34]: > 100 µM | TGI [35]: > 100 µM | TGI [58]: > 100 µM | TGI [36]: > 100 µM | TGI [37]: > 100 µM | TGI [59]: > 100 µM | TGI [38]: > 100 µM | TGI [39]: > 100 µM | TGI [60]: > 100 µM | TGI [42]: > 100 µM
